Experimental data: the CheMixHub viscosity set

Assay: xn = mol fraction of the nth substance listed

CCCCOC(C)=O + CCCCCCCCCCCC
298.15 K, 101.3 kPa
Settings | viscosity [mPa·s]
x1 = 0.133 | 1.231
x1 = 0.2982 | 1.09
x1 = 0.4364 | 0.9867
x1 = 0.4791 | 0.9597
x1 = 0.5426 | 0.9188
x1 = 0.683 | 0.8358
x1 = 0.7904 | 0.7782
x1 = 0.8705 | 0.7393
x1 = 0.9238 | 0.7176
x1 = 0.9757 | 0.6938

CCCOC(=O)c1ccccc1 + CCCCCCCCCCCC
101 kPa
Settings | viscosity [mPa·s]
298.15 K, x2 = 0.0304 | 2.294
298.15 K, x2 = 0.0721 | 2.175
298.15 K, x2 = 0.1434 | 2.021
298.15 K, x2 = 0.1817 | 1.949
298.15 K, x2 = 0.2145 | 1.892
298.15 K, x2 = 0.3444 | 1.688
298.15 K, x2 = 0.3881 | 1.634
298.15 K, x2 = 0.4343 | 1.583
298.15 K, x2 = 0.4851 | 1.537
298.15 K, x2 = 0.5395 | 1.494
298.15 K, x2 = 0.5883 | 1.458
298.15 K, x2 = 0.6355 | 1.431
298.15 K, x2 = 0.6936 | 1.402
298.15 K, x2 = 0.7544 | 1.38
298.15 K, x2 = 0.8162 | 1.368
298.15 K, x2 = 0.8809 | 1.358
298.15 K, x2 = 0.9435 | 1.354
308.15 K, x2 = 0.0462 | 1.805
308.15 K, x2 = 0.0938 | 1.716
308.15 K, x2 = 0.1234 | 1.663
308.15 K, x2 = 0.1581 | 1.608
308.15 K, x2 = 0.1951 | 1.553
308.15 K, x2 = 0.237 | 1.499
308.15 K, x2 = 0.2799 | 1.449
308.15 K, x2 = 0.3153 | 1.411
308.15 K, x2 = 0.359 | 1.37
308.15 K, x2 = 0.4106 | 1.326
308.15 K, x2 = 0.4473 | 1.299
308.15 K, x2 = 0.4959 | 1.267
308.15 K, x2 = 0.5498 | 1.236
308.15 K, x2 = 0.6007 | 1.21
308.15 K, x2 = 0.6592 | 1.191
308.15 K, x2 = 0.7183 | 1.172
308.15 K, x2 = 0.7624 | 1.163
308.15 K, x2 = 0.8324 | 1.153
308.15 K, x2 = 0.9146 | 1.146
318.15 K, x2 = 0.026 | 1.532
318.15 K, x2 = 0.0634 | 1.473
318.15 K, x2 = 0.0967 | 1.423
318.15 K, x2 = 0.1355 | 1.371
318.15 K, x2 = 0.1705 | 1.328
318.15 K, x2 = 0.2119 | 1.28
318.15 K, x2 = 0.2499 | 1.242
318.15 K, x2 = 0.2955 | 1.201
318.15 K, x2 = 0.3358 | 1.168
318.15 K, x2 = 0.4031 | 1.12
318.15 K, x2 = 0.4279 | 1.105
318.15 K, x2 = 0.48 | 1.077
318.15 K, x2 = 0.5272 | 1.055
318.15 K, x2 = 0.5827 | 1.033
318.15 K, x2 = 0.6342 | 1.015
318.15 K, x2 = 0.6953 | 0.997
318.15 K, x2 = 0.7509 | 0.985
318.15 K, x2 = 0.8169 | 0.975
318.15 K, x2 = 0.8761 | 0.968

CCCCCCCC(=O)O + CCCCCCCCCCCC(=O)O
100 kPa, x2 = 0.25
Settings | viscosity [mPa·s]
293.15 K | 8.223
298.15 K | 7.085
303.15 K | 6.158
308.15 K | 5.394
313.15 K | 4.759
318.15 K | 4.227
323.15 K | 3.777

CCCOC(=O)c1ccccc1 + CCCCCCCCCCCCCC
101 kPa
Settings | viscosity [mPa·s]
298.15 K, x2 = 0.0348 | 2.302
298.15 K, x2 = 0.0666 | 2.257
298.15 K, x2 = 0.0955 | 2.215
298.15 K, x2 = 0.1309 | 2.171
298.15 K, x2 = 0.1608 | 2.137
298.15 K, x2 = 0.1965 | 2.099
298.15 K, x2 = 0.2367 | 2.06
298.15 K, x2 = 0.2722 | 2.029
298.15 K, x2 = 0.307 | 2.003
298.15 K, x2 = 0.3527 | 1.974
298.15 K, x2 = 0.401 | 1.948
298.15 K, x2 = 0.4477 | 1.928
298.15 K, x2 = 0.4973 | 1.916
298.15 K, x2 = 0.549 | 1.906
298.15 K, x2 = 0.5955 | 1.905
298.15 K, x2 = 0.6516 | 1.908
298.15 K, x2 = 0.7159 | 1.921
298.15 K, x2 = 0.7647 | 1.934
298.15 K, x2 = 0.8531 | 1.97
308.15 K, x2 = 0.0488 | 1.84
308.15 K, x2 = 0.0735 | 1.808
308.15 K, x2 = 0.1091 | 1.77
308.15 K, x2 = 0.148 | 1.734
308.15 K, x2 = 0.1734 | 1.714
308.15 K, x2 = 0.215 | 1.682
308.15 K, x2 = 0.2514 | 1.659
308.15 K, x2 = 0.2896 | 1.639
308.15 K, x2 = 0.3376 | 1.62
308.15 K, x2 = 0.3703 | 1.608
308.15 K, x2 = 0.4154 | 1.596
308.15 K, x2 = 0.4616 | 1.587
308.15 K, x2 = 0.5232 | 1.58
308.15 K, x2 = 0.572 | 1.58
308.15 K, x2 = 0.6124 | 1.582
308.15 K, x2 = 0.6769 | 1.588
308.15 K, x2 = 0.7367 | 1.601
308.15 K, x2 = 0.8128 | 1.623
308.15 K, x2 = 0.8907 | 1.652
318.15 K, x2 = 0.0558 | 1.521
318.15 K, x2 = 0.0578 | 1.517
318.15 K, x2 = 0.0908 | 1.491
318.15 K, x2 = 0.1258 | 1.464
318.15 K, x2 = 0.159 | 1.442
318.15 K, x2 = 0.1985 | 1.418
318.15 K, x2 = 0.2344 | 1.399
318.15 K, x2 = 0.2777 | 1.379
318.15 K, x2 = 0.3162 | 1.364
318.15 K, x2 = 0.3637 | 1.348
318.15 K, x2 = 0.4065 | 1.337
318.15 K, x2 = 0.4576 | 1.328
318.15 K, x2 = 0.5191 | 1.321
318.15 K, x2 = 0.5622 | 1.319
318.15 K, x2 = 0.6149 | 1.32
318.15 K, x2 = 0.68 | 1.325
318.15 K, x2 = 0.7358 | 1.332
318.15 K, x2 = 0.8096 | 1.347
318.15 K, x2 = 0.9298 | 1.382

CCCCCCCCCCCCCCCCCCCC + CCCCCCCCCCCCCCCC
viscosity [mPa·s], 101.3 kPa
Settings | x1 = 0.2 | x1 = 0.4 | x1 = 0.5 | x1 = 0.599 | x1 = 0.8
293.2 K | 3.875 | – | – | – | –
303.2 K | 3.045 | 3.481 | 3.77 | 4.065 | –
313.2 K | 2.459 | 2.785 | 3.011 | 3.223 | 3.602
